{"source": "patent US12714718B2", "about": "“Treatment of 22Q11.2 deletion syndrome with cannabidiol” (priority 2018, dated 2026)", "key": {"[1]": {"system": "children and adults", "settings": "in vivo; cited from earlier work"}, "[2]": {"settings": "cited from earlier work"}, "[3]": {"system": "children and adolescents with 22q11.2 Deletion Syndrome", "test": "Safety and tolerability monitoring, open-label ZYN002 study", "assay_type": "in vivo, human", "settings": "up to 14 weeks", "experimental": "(§1) Methodology: This was an open-label study to assess the safety, tolerability and efficacy of CBD administered as ZYN002, a transdermal gel, for the treatment of child and adolescent patients with 22q11.2 deletion syndrome. Male and female patients with 22q11.2 deletion syndrome were treated in Period 1 for 14 weeks with 250 mg and 500 mg of CBD (patients ≤35 kg received 250 mg CBD daily; patients >35 kg received 500 mg CBD daily). For patients with less than a 25% improvement from baseline in the ABC-C irritability subscale, the investigator could increase the total daily dose at Week 6 of treatment. Twenty male and female patients, ages 6 to <18 years, received ZYN002.\nSafety Monitoring: Patient safety was monitored at each study visit using standard measures, including physical and neurological exams, examination of skin at application sites for irritation, vital signs, 12-lead ECGs, the C-SSRS, safety laboratory tests, and AE monitoring.\n(§2) Each application consisted of one sachet of ZYN002 CBD 4.2% concentration, containing 2.98 g of gel. At Week 6, if the patient had less than a 25% improvement from baseline in the ABC-C irritability subscale, the investigator increased the dose as follows: • Patients who weigh ≤35 kg receiving a total daily dose of 250 mg CBD had their daily dose increased to 500 mg. […]"}, "[4]": {"system": "children and adolescents with 22q11.2 Deletion Syndrome", "test": "Anxiety, Depression, and Mood Scale (ADAMS), open-label ZYN002 study", "assay_type": "in vivo, human", "settings": "Week 6 and Week 14", "experimental": "as §1\nAnxiety, Depression, and Mood Scale (ADAMS): The Anxiety, Depression, and Mood Scale was completed by the parent/caregiver, with support from the site staff. The ADAMS was used as a comprehensive assessment of anxiety, depression, and mood among the patients. […]\n(§3) Statistical Methods: Descriptive statistics (mean, median, standard deviation, minimum, and maximum) for continuous data and number (n) and percentage (%) for categorical data were determined for all efficacy and safety parameters."}, "[5]": {"system": "children and adolescents with 22q11.2 Deletion Syndrome", "test": "Aberrant Behavior Checklist-Community (ABC-C), open-label ZYN002 study", "assay_type": "in vivo, human", "settings": "Week 6 and Week 14", "text": "Aberrant Behavior Checklist-Community (ABC-C): The Aberrant Behavior Checklist-Community, 2nd Edition, was completed by the parent/caregiver, with support from the site staff. The ABC-C asks responders to rate behaviors from “0—not at all a problem” to “3—the problem is severe in degree” across 58 questions.\nEach application consisted of one sachet of ZYN002 CBD 4.2% concentration, containing 2.98 g of gel. […]"}, "[6]": {"system": "children and adolescents with 22q11.2 Deletion Syndrome", "test": "Clinical Global Impression-Improvement (CGI-I), open-label ZYN002 study", "assay_type": "in vivo, human", "experimental": "as §1\nClinical Global Impressions Scale-Improvement: The Clinical Global Impression Scale, Improvement (CGI-I), is commonly used in clinical trials as they allow the clinician to utilize the history from the caregiver and incorporate the score into a clinical rating for the severity of symptoms. CGI-I is a 7-point scale that is used to assess how much the patient's behavioral symptoms associated with 22q11.2 deletion syndrome have improved, or worsened, relative to a baseline assessment at the beginning of the treatment.\nas §2, with “mg. Each application consisted of two sachets of ZYN002 CBD 4.2% concentration, containing 2.98 g of gel. • Patients >35 kg received 250 mg CBD applied Q12H (±2 hours); total daily dose of 500 mg CBD.” for “mg.”\nas §3"}, "[7]": {"system": "children and adolescents with 22q11.2 Deletion Syndrome", "test": "Pediatric Anxiety Rating Scale (PARS), open-label ZYN002 study", "assay_type": "in vivo, human", "settings": "Week 14", "experimental": "as §1\nPediatric Anxiety Rating Scale (PARS): The PARS is a clinician-rated caregiver interview that covers 61 behaviors related to anxiety (Riddle M A, et al, The Pediatric Anxiety Rating Scale (PARS) Development and Psychometric Properties, J. Am. Acad. Child Adolesc. Psychiatry, 2002, 4(9):1061-1069). The PARS provides broad coverage of separation anxiety, social phobia, and generalized anxiety. […] The interviewer assesses the severity by quantifying the frequency and degree of interference and avoidance in family, school and community settings. Each of seven severity items is scored on a scale of 1 to 5, with 5 being the most severe and frequent. […]"}, "[8]": {"system": "adults with social phobia", "settings": "crossover trial; cited from earlier work"}}, "data": [{"smiles": "C=C(C)C1CCC(C)=CC1c1c(O)cc(CCCCC)cc1O", "note": "(stereo not shown) [CBD, 2-[3-methyl-6-(1-methylethenyl)-2-cyclohexen-1-yl]-5-pentyl-1,3-benzenediol]", "values": [{"measurement": "tolerability in children and adults", "setting": "[1]", "value": "generally well tolerated"}, {"measurement": "solubility in water, in words", "setting": "[2]", "value": "virtually insoluble in water"}, {"measurement": "tolerability of transdermal administration", "setting": "[3]", "value": "well tolerated"}, {"measurement": "ADAMS total score and all five subscales vs baseline, in words", "setting": "[4]", "value": "statistically significant improvements"}, {"measurement": "ABC-C all five subscales vs baseline, in words", "setting": "[5]", "value": "statistically and clinically meaningful improvements"}, {"measurement": "patients being much improved or very much improved (CGI-I)", "setting": "[6]", "value": 62.5, "unit": "%"}, {"measurement": "patients rated by clinicians as improved, much-improved or very much improved (CGI-I)", "setting": "[6]", "value": "Seventy-five"}, {"measurement": "CGI-I, majority of patients, in words", "setting": "[6]; Week 6 and Week 14", "value": "clinically meaningful improvements"}, {"measurement": "PARS vs baseline, in words", "setting": "[7]", "value": "statistically significant improvements"}, {"measurement": "physiological and cognitive indicators of anxiety", "setting": "[8]", "value": "significant and clinically meaningful reductions"}]}]}
